Results as given in ChEMBL document CHEMBL1201862, “PubChem BioAssay data set” (2004).
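Exposure lasted 48 hours, with cells grown in 96-well plates and compounds tested at five concentrations. GI50 is the concentration that inhibits growth by half.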 Activity calls are given as the source filed them. No stated cut-off is given here; in the data, active = GI50 up to about 1.1 µM and inactive = higher.

Legend:
Assay in all cases: NCI-60 cell line screen, 48 h
A549 = tested on: A549
DU-145 = tested on: DU-145
HCC 2998 = tested on: HCC 2998
HL-60 = tested on: HL-60
IGROV-1 = tested on: IGROV-1
MCF7 = tested on: MCF7
MDA-MB-231 = tested on: MDA-MB-231
NCI-H23 = tested on: NCI-H23
NCI-H460 = tested on: NCI-H460
NCI-H522 = tested on: NCI-H522
OVCAR-5 = tested on: OVCAR-5
PC-3 = tested on: PC-3
SF-539 = tested on: SF-539
SK-MEL-2 = tested on: SK-MEL-2
SK-MEL-5 = tested on: SK-MEL-5
SN12C = tested on: SN12C
SW-620 = tested on: SW-620
T47D = tested on: T47D
TK-10 = tested on: TK-10
U-251 = tested on: U-251

Measured: GI50

C/C=C1/C[C@@H](C)[C@@](C)(O)C(=O)OCC2=CC[N+]3([O-])CC[C@@H](OC1=O)[C@@H]23 (stereo not given in full) [SENECIONINE N-OXIDE]
inactive: A549 > 100 µM | DU-145 > 100 µM | HCC 2998 > 100 µM | HL-60 > 100 µM | IGROV-1 > 100 µM | MCF7 > 100 µM | MDA-MB-231 > 100 µM | NCI-H23 > 100 µM | NCI-H460 > 100 µM | NCI-H522 > 100 µM | OVCAR-5 > 100 µM | PC-3 > 100 µM | SF-539 > 100 µM | SK-MEL-2 > 100 µM | SK-MEL-5 > 100 µM | SN12C > 100 µM | SW-620 > 100 µM | T47D > 100 µM | TK-10 > 100 µM | U-251 > 100 µM
